Results: paper PMC11423305, “Structure-Based Design of CBP/EP300 Degraders: When Cooperativity Overcomes Affinity” (JACS Au, 2024)

Assays:
[1] = target: CRBN and CBP-BRD (Homo sapiens, UniProt Q92793+Q96SW2); experiment: FluoPPI cellular ternary complex formation, CBP-BRD; type: cell-based; details: U2OS cells, 6 h
[2] = target: T1, BRD4 (Homo sapiens, UniProt O60885); experiment: Global proteomics / Western blot of BRD4 level; type: cell-based; details: LP1 and MM1S cells, 16 h, 1 μM; verified by Western blot
T1 construct: Western blot masurement of BRD4 levels in LP1 cells treated for 16 h with; endogenous in cells; host or cells: LP1 and MM1S cells
Experimental: cooperativity factor (α) was defined as the ratio of the IC50 values in the absence and […]
For the ternary complex experiments, the final assay composition was: 0.1 % DMSO, 5 nM GST-CBP, 5 nM CRBN-Avi(biotin), 100 mM KF, 0.625 nM XL665-Streptavidin conjugate and 0.8 nM anti-GST mAb – Eu3+-cryptate. The maximal control contained 40 nM dCBP-1, the blank contained no PROTAC. Hook curves were generated by normalization to the maximal control.
LP1 cells were cultured in DMEM (Gibco, 41966-029) supplemented with 15 % FBS (Sigma, F9665); MM1S and LNCaP cells in RPMI 1640 ATCC modification (Gibco, […]
DMEM/F12 (Gibco, 11320074) supplemented with 1 % non-essential amino acids […]
Quantification of CBP/EP300 degradation by Western blotting
LP1 cells plated on 6 well plates were treated with the stated compounds at a final concentration of 0.1 % DMSO for the stated time. […] Protein concentrations were determined using the Pierce ™ BCA Protein Assay Kit (Thermo Scientific, 23227) and equal amounts were separated on 4-12 % ExpressPl us™ PAGE gels (GenScript, M41215). […]
SuperSignal™ West Pico PLUS Chemiluminescent Substrate (Thermo Scientific, 34580) and the Vilber Fusion-FX7 imager. Bands were quantified using ImageJ software and protein levels normalized to protein from DMSO treated cells run on the same membrane. […]

[3] = target: CBP-BRD (Homo sapiens, UniProt Q92793); experiment: BROMOscan ligand binding site-directed competition assay, CBP; set-up: T7 phage display fusion with DNA tag for qPCR; purchased Eurofins Discovery (BROMOscan service); host or cells: E. coli infected with T7 phage
Chain of CBP-BRD (Q92793 1085-1192 limits assumed): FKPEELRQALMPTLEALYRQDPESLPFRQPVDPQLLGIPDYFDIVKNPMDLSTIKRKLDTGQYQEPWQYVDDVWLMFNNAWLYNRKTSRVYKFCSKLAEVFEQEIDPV
Experimental: 2. Methods and General Procedures […]
KD values were determined using BROMOscan™ technology, carried out by Eurofins […]
Discovery according to their standard protocol. Briefly E. coli were infected with T7 phage […]
strains displaying bromodomains and bromodomain protein was subsequently purified […]
through lysis, centrifugation and filtration. Affinity resins were generated by incubation of […]
streptavidin-coated magnetic beads with biotinylated small molecules or acetylated […]
peptide ligands. Binding reactions were assembled by combining the bromodomains and […]
liganded affinity beads in binding buffer (17 % SeaBlock, 0.33x PBS, 0.04 % Tween 20, […]
0.02 % BSA, 0.004 % sodium azide and 7.4 mM DTT) with compounds (11-point, 3-fold […]
dilution series) added to give a final DMSO concentration of 0.09 %. Assay plates were […]
incubated for 1 h, prior to washing and elution of beads. The bromodomain concentration […]
in the eluates was measured by qPCR of the DNA tag on the bromodomain.
KD values were calculated with a standard dose-response curve fitted using the Hill […]
Response = Background + Signal − Background […]
The Hill Slope was set to -1 and curves fitted using a non-linear least square fit with the Levenberg-Marquardt algorithm.
Ligand efficiency (LE) was calculated as follows: LE = 1.4(pIC50)/N

[4] = tested on: CBP/EP300; experiment: Western blot of CBP and EP300 levels in various cell lines; type: cell-based; details: 16 h, 1 μM

Chain of CRBN and CBP-BRD (Q92793 1081-1211): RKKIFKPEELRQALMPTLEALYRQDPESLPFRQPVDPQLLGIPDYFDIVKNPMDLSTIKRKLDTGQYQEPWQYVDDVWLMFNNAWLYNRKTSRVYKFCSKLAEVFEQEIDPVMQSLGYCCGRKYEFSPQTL
Chain of CRBN and CBP-BRD (Q96SW2 whole entry): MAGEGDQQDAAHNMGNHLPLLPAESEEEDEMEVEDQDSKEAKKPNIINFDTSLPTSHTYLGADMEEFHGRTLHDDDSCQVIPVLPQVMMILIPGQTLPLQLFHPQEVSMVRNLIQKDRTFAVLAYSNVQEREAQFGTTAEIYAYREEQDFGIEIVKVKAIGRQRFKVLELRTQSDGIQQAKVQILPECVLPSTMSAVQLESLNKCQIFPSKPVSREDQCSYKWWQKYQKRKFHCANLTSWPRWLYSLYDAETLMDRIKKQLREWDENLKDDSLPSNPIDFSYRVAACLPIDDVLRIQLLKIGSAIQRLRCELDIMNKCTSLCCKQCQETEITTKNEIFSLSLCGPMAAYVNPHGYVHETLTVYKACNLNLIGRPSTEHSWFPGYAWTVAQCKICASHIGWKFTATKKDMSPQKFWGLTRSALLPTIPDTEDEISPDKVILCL

Cc1cc2c(NC(=O)c3cc(NC(=O)CCCCCCCCCCNc4cccc5c4C(=O)N(C4CCC(=O)NC4=O)C5=O)cc(-c4ccn(C)n4)c3)cccc2nn1 (centres unmarked) [dCE-2]
ternary complex formation in cells with CRBN and CBP-BRD [1]: good ternary complex formation | level of BRD4 [2]: not changed | Kd ([3]; BROMOscan): 1300 nM | loss of potency compared to parent compound 3, CBP ([3]; BROMOscan KD ratio): > 40 fold | CBP/EP300 degradation in MM1S, LNCaP and SH-SY5Y cells [4]: active degrader
